SMILES strings stand for the structures.

`CC(C)N(C)S(=O)(=O)NC(=O)c1cc(N=C=O)c(F)cc1Cl`: the melting point fell in the range of 144 to 148 °C.

The values above are taken from patent US8541611B2 (dated 2013).
